Experiments:
Cannabinoid receptor 1 = Cannabinoid receptor 1 (Rattus norvegicus, UniProt P20272); format: cell membranes, Brain, Membrane
Description: Displacement of [3H]CP-55940 from cannabinoid CB1 receptor in rat brain membrane in presence of phenylmethanesulfonyl fluoride

Cannabinoid receptor 2 = Cannabinoid receptor 2 (Mus musculus, UniProt P47936); experiment: Displacement of [3H]CP-55940 from cannabinoid CB2 receptor in mouse spleen membrane; format: cell membranes
Sequence of Cannabinoid receptor 2 (P47936 whole entry): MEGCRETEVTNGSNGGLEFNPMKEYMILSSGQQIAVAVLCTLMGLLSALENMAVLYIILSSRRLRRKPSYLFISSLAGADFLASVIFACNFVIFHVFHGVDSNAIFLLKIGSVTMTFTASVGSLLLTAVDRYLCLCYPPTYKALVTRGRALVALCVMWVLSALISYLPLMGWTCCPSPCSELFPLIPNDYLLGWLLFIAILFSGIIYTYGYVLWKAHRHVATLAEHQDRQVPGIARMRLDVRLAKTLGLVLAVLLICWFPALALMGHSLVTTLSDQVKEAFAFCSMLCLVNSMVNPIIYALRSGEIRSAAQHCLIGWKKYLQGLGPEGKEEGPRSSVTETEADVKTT

Sequence of Cannabinoid receptor 1 (P20272 whole entry): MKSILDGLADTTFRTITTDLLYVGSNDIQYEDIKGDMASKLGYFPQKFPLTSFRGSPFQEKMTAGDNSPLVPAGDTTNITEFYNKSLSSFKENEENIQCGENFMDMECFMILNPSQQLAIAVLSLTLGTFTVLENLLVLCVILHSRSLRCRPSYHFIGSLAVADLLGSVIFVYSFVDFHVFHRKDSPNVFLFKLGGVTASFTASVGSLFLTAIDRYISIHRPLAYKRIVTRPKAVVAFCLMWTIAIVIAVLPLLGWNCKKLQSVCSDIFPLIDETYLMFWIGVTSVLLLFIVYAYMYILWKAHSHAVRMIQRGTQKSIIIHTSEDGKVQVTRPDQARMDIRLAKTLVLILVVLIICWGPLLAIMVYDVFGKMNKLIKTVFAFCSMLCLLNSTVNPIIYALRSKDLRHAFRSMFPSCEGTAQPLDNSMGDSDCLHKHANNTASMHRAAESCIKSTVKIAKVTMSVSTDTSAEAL

Row | Compound | Ki (Cannabinoid receptor 1) [µM] | Ki (Cannabinoid receptor 2) [µM]
1 | C[C@H](CO)NC(=O)CCC/C=C\C/C=C\C/C=C\C/C=C\CCCCc1ccoc1 | 0.012 | 1.03
2 | C[C@H](CO)NC(=O)CCC/C=C\C/C=C\C/C=C\C/C=C\CCCCc1cccc(C(F)(F)F)c1 | 0.284 | 2.04
3 | C[C@H](CO)NC(=O)CCC/C=C\C/C=C\C/C=C\C/C=C\CCCCc1ccccc1 | 0.0133 | 1.12
4 | C[C@H](CO)NC(=O)CCC/C=C\C/C=C\C/C=C\C/C=C\CCCCCc1ccco1 | 0.561 | 3.26
5 | C[C@H](CO)NC(=O)CCC/C=C\C/C=C\C/C=C\C/C=C\Cc1ccccc1 | 0.349 | 0.826
6 | C[C@H](CO)NC(=O)CCC/C=C\C/C=C\C/C=C\C/C=C\CCCCc1ccc(Br)cc1 | 0.0089 | 0.25
7 | C[C@H](CO)NC(=O)CCC/C=C\C/C=C\C/C=C\C/C=C\CCc1ccccc1 | 0.241 | 0.335
8 | Cc1cccc(CCCC/C=C\C/C=C\C/C=C\C/C=C\CCCC(=O)N[C@H](C)CO)c1 | 0.344 | 0.84
9 | C[C@H](CO)NC(=O)CCC/C=C\C/C=C\C/C=C\C/C=C\CCCCCc1ccccc1 | 0.0766 | 0.241
10 | C[C@H](CO)NC(=O)CCC/C=C\C/C=C\C/C=C\C/C=C\CCCCc1ccco1 | 0.325 | 0.75
11 | C[C@H](CO)NC(=O)CCC/C=C\C/C=C\C/C=C\C/C=C\CCCCc1ccccc1Br | 0.17 | 
12 | C[C@H](CO)NC(=O)CCC/C=C\C/C=C\C/C=C\C/C=C\CCCCc1cccc(Br)c1 | 0.0953 | 1.05
13 | C[C@H](CO)NC(=O)CCC/C=C\C/C=C\C/C=C\C/C=C\CCCCCc1ccoc1 | 0.17 | 0.869
14 | C[C@H](CO)NC(=O)CCC/C=C\C/C=C\C/C=C\C/C=C\CCCCc1cccc2ccccc12 | 0.678 | 4
15 | C[C@H](CO)NC(=O)CCC/C=C\C/C=C\C/C=C\C/C=C\CCCCc1cccc(I)c1 | 0.533 | 1.56
16 | C[C@H](CO)NC(=O)CCC/C=C\C/C=C\C/C=C\C/C=C\CCCCc1cccc(Cl)c1 | 0.0894 | 0.605
17 | C[C@H](CO)NC(=O)CCC/C=C\C/C=C\C/C=C\C/C=C\CCCc1ccccc1 | 0.0692 | 0.534

— ChEMBL document CHEMBL1151792, “Development of novel tail-modified anandamide analogs” (Bioorg Med Chem Lett, 2008)
